Assay results taken from patent US20180160684A1 (priority 2015, published 2018).
Read-outs that look alike come from different tables or passages of the source.

Test system: tomato late blight
Type: in vivo, Phytophthora infestans

CC(C)(C)C(O)(CCc1ccc(Cl)cc1)Cn1cncn1 (stereo not drawn) [Tebuconazole, tebuconazole]
Control value (tebuconazole 12.5 ppm alone (valifenalate 0 ppm)): 4 | Control value (tebuconazole 25 ppm alone (valifenalate 0 ppm)): 4 | Control value (tebuconazole 50 ppm alone (valifenalate 0 ppm)): 4 | Control value (tebuconazole 100 ppm alone (valifenalate 0 ppm)): 8

Cc1cc(OC(C)C)ccc1C(=O)C(C)(C)NC(=O)c1sccc1C [Isofetamid, isofetamid]
Control value (isofetamid 18.8 ppm alone (valifenalate 0 ppm)): 0 | Control value (isofetamid 37.5 ppm alone (valifenalate 0 ppm)): 0 | Control value (isofetamid 75 ppm alone (valifenalate 0 ppm)): 0 | Control value (isofetamid 150 ppm alone (valifenalate 0 ppm)): 4 | Control value (isofetamid 300 ppm alone (valifenalate 0 ppm)): 8

COc1cc(C)c(C(=O)c2c(OC)ncc(Cl)c2C)c(OC)c1OC [Pyriofenone, pyriofenone]
Control value (pyriofenone 12.5 ppm alone (valifenalate 0 ppm)): 0 | Control value (pyriofenone 25 ppm alone (valifenalate 0 ppm)): 0 | Control value (pyriofenone 50 ppm alone (valifenalate 0 ppm)): 0 | Control value (pyriofenone 100 ppm alone (valifenalate 0 ppm)): 0

COC(=O)CC(NC(=O)[C@@H](NC(=O)OC(C)C)C(C)C)c1ccc(Cl)cc1 (stereo partly drawn) [Valifenalate, valifenalate]
Control value (valifenalate 1.2 ppm alone (difenoconazole 0 ppm), Table 4): 46 | Control value (valifenalate 1.2 ppm alone (isofetamid 0 ppm), Table 1): 29 | Control value (valifenalate 1.2 ppm alone (pyriofenone 0 ppm), Table 2): 13 | Control value (valifenalate 2.3 ppm alone (difenoconazole 0 ppm), Table 4): 54 | Control value (valifenalate 2.3 ppm alone (isofetamid 0 ppm), Table 1): 42 | Control value (valifenalate 2.3 ppm alone (pyriofenone 0 ppm), Table 2): 25 | Control value (valifenalate 2.3 ppm alone (tebuconazole 0 ppm), Table 3): 33 | Control value (valifenalate 4.7 ppm alone (difenoconazole 0 ppm), Table 4): 58 | Control value (valifenalate 4.7 ppm alone (isofetamid 0 ppm), Table 1): 54 | Control value (valifenalate 4.7 ppm alone (pyriofenone 0 ppm), Table 2): 50 | Control value (valifenalate 4.7 ppm alone (tebuconazole 0 ppm), Table 3): 46 | Control value (valifenalate 9.4 ppm alone (difenoconazole 0 ppm), Table 4): 75 | Control value (valifenalate 9.4 ppm alone (isofetamid 0 ppm), Table 1): 71 | Control value (valifenalate 9.4 ppm alone (pyriofenone 0 ppm), Table 2): 63 | Control value (valifenalate 9.4 ppm alone (tebuconazole 0 ppm), Table 3): 63 | Control value (valifenalate 18.8 ppm alone (isofetamid 0 ppm), Table 1): 75 | Control value (valifenalate 18.8 ppm alone (pyriofenone 0 ppm), Table 2): 79 | Control value (valifenalate 18.8 ppm alone (tebuconazole 0 ppm), Table 3): 67 | Control value (valifenalate 37.5 ppm alone (tebuconazole 0 ppm), Table 3): 72

CC1COC(Cn2cncn2)(c2ccc(Oc3ccc(Cl)cc3)cc2Cl)O1 (stereo not drawn) [Difenoconazole, difenoconazole]
Control value (difenoconazole 12.5 ppm alone (valifenalate 0 ppm)): 13 | Control value (difenoconazole 25 ppm alone (valifenalate 0 ppm)): 13 | Control value (difenoconazole 50 ppm alone (valifenalate 0 ppm)): 21 | Control value (difenoconazole 100 ppm alone (valifenalate 0 ppm)): 25
